According to patent US20220193205A1, “METHODS OF TREATING CANCER” (Foghorn Therapeutics Inc., priority 2019, published 2022):

Test system: ATRX null/ALT+ osteosarcoma cell line SAOS2
Experiment: Cell viability by CellTiter-Glo after siRNA delivery
Format: cell-based
Details: compared to negative control siRNA, FIG. 3
Procedure: Procedure: SAOS2 cell line was seeded in 100 μL of media in 96-well plates (Corning 3904) excluding edge wells at the following density of 10000 cells per well. SOAS2 cells were seeded the day prior to transduction. Custom Stealth siRNA and Negative Control siRNA were ordered from ThermoFisher. The procedure for siRNA delivery was conducted based on the manufacturer's recommendation. The SMARCAL1 targeting siRNA sequence is: […] (SEQ ID NO: 356).
Cell viability was assayed using CellTiter-Glo (Promega G7572) at 100 μL per well. Luminescence was read using PerkinElmer EnVision 2105. Values were normalized to the average values from the negative control sgRNAs. Experiments were performed three times. Shown are the triplicate results of one representative experiment. Two tailed, type 3 Student's t-test was performed to determine statistical significance, which was conducted on Microsoft Excel (Microsoft).

## UUUCACAGAGAAAUGCUUAUGCAGG (siRNA; commercial Stealth siRNA, chemistry not given here, further chemistry not given here; listed as Homo sapiens) [siRNA targeting SMARCAL-1, Custom Stealth siRNA targeting SMARCAL1, ordered from ThermoFisher]
  cell viability: decreased viability
